Data as given in patent US7538182B2, “Polypeptide and protein derivatives and process for their preparation” (Amylin Pharmaceuticals, Inc., priority 1986, dated 2009).

Assays:
[1] = format: physicochemical
Description: Once the iron had been removed, the solution was adjusted to pH 5.5 with 1.7 M sodium acetate buffer. The resulting precipitate was carefully washed by centrifugation in 0.7 M sodium acetate buffer, until the residual EDTA concentration could be expected to be negligible compared to that of the conjugate.

[2] = Removal of iron with propionic acid/EDTA, followed by spectroscopy (loss of the 400-450 nm peak); format: physicochemical; conditions: test solution of 1 mM ferrioxamine B
Description: The pink colour of the solution was rapidly lost. If desired the reaction can be followed spectroscopically, since after removal of iron the peak between 400 nm and 450 nm, characteristic of the ferrioxamine B conjugate will disappear completely.

des-Ala^B30-insulin/desferrioxamine B conjugate [iron-free protein derivative]
storage stability (capacity to be labelled) [1]: without apparent impairment

CC(=O)N([O-])CCCCCNC(=O)CCC(=O)N([O-])CCCCCNC(=O)CCC(=O)N([O-])CCCCCN.[Fe+3] [ferrioxamine B]
rate of the removal of iron ([2]; pH 2.5): too rapid to follow | half-time for the removal of iron ([2]; pH 3): approximately 90 seconds | half-time for the removal of iron ([2]; pH 3.5): approximately 340 sec
